Experimental data from patent publication US11981658B2, “Substituted aminopyridine compounds as EGFR inhibitors” (YUHAN CORPORATION, priority 2021, dated 2024).
Where two headings read alike, the source gives them in different places.

Key:
EGFR Del19/T790M/C797S = EGFR Del19/T790M/C797S (Homo sapiens, UniProt P00533, C797S/DEL746-750/T790M); experiment: Biochemical EGFR kinase inhibition assay (Lance Ultra TR-FRET), triple mutant del19/T790M/C797S
Description: (§1) Biochemical EGFR kinase assays were conducted using Lance Ultra time-resolved fluorescence resonance energy transfer (TR-FRET) technology from Perkin-Elmer. Compounds of the invention were initially diluted to 20 mM in 100% DMSO for storage and made into kinase buffer solution to create a compound concentration ranging from 0.003 μM and 10 μM.
(§2) Each kinase reactions were incubated at room temperature for 1 hour and then stopped by the addition of 4 μL of stop solution (10 mM EDTA). The specific Europium-labeled-anti-phosphopeptide antibody (PerkinElmer, AD0069) diluted in LANCE detection buffer was then added to a final concentration of 2 nM. After 60 minutes incubation at room temperature the LANCE signal was measured on an EnVision Multilabel Reader (Perkin-Elmer). Excitation wavelength was set at 320 nm and emission monitored at 615 nm (donor) and 665 nm (acceptor). The IC50 values were determined using GraphPad prism software (GraphPad Software, Inc., San Diego, CA, USA).

EGFR L858R/T790M/C797S = EGFR L858R/T790M/C797S (Homo sapiens, UniProt P00533, C797S/L858R/T790M); experiment: Biochemical EGFR kinase inhibition assay (Lance Ultra TR-FRET), triple mutant L858R/T790M/C797S
Description: as §1, §2

EGFR Del19/C797S = EGFR Del19/C797S (Homo sapiens, UniProt P00533, C797S/DEL746-750); experiment: Biochemical EGFR kinase inhibition assay (Lance Ultra TR-FRET), double mutant del19/C797S
Description: as §1, §2

EGFR wildtype (WT) = EGFR wildtype (WT) (Homo sapiens, UniProt P00533); experiment: Biochemical EGFR kinase inhibition assay (Lance Ultra TR-FRET), wildtype
Description: as §1, §2

[1] = Km ATP, read-out: IC50 Del19/T790M/C797S (nM) Km ATP
[2] = Km ATP, read-out: IC50 L858R/T790M/C797S (nM) Km ATP
[3] = Km ATP, read-out: IC50 Del19/C797S (nM) Km ATP
[4] = Km ATP, read-out: IC50 WT (nM) Km ATP
[5] = IC50 Del19/T790M/C797S (nM), 100 μM ATP
[6] = IC50 L858R/T790M/C797S (nM), 100 μM ATP
[7] = IC50 Del19/C797S (nM), 100 μM ATP
[8] = ATP at Km, read-out: IC50 Del19/T790M/C797S (nM), Km ATP
[9] = ATP at Km, read-out: IC50 WT (nM), Km ATP
[10] = ATP at Km, read-out: IC50 Del19/C797S (nM), Km ATP

Chain of EGFR Del19/C797S (P00533 with tags, fused parts or gaps DEL746-750/C797S): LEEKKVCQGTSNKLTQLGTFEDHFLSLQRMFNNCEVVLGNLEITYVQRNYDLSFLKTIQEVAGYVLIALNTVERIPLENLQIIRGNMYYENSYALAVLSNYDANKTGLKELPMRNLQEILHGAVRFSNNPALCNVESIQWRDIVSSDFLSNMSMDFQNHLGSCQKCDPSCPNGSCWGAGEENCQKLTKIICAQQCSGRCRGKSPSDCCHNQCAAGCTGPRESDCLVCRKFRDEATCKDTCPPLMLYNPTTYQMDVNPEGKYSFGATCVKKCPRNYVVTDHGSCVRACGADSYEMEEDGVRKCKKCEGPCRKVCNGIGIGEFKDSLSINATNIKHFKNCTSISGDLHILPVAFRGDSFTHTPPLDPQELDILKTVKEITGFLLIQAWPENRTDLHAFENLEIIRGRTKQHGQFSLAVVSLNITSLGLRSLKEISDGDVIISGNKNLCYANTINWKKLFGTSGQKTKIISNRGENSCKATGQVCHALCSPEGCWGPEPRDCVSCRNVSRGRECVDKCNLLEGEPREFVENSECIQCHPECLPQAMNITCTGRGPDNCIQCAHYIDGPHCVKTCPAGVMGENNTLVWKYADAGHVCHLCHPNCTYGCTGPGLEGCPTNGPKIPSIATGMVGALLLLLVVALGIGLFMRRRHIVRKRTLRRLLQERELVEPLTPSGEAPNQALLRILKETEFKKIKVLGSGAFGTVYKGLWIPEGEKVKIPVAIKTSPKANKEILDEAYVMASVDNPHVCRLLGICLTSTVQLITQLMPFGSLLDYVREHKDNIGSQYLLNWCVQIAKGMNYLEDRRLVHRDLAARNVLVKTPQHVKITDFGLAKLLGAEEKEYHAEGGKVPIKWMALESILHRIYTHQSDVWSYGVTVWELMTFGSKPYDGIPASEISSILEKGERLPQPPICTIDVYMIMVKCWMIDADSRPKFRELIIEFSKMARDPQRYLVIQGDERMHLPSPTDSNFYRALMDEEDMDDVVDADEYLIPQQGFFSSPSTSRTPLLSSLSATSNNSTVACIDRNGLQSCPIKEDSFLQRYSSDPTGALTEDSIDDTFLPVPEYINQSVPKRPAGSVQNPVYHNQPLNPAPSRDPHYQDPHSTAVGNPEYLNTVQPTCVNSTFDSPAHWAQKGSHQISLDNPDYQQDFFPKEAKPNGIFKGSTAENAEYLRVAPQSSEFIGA
Chain of EGFR wildtype (WT) (P00533 25-1210): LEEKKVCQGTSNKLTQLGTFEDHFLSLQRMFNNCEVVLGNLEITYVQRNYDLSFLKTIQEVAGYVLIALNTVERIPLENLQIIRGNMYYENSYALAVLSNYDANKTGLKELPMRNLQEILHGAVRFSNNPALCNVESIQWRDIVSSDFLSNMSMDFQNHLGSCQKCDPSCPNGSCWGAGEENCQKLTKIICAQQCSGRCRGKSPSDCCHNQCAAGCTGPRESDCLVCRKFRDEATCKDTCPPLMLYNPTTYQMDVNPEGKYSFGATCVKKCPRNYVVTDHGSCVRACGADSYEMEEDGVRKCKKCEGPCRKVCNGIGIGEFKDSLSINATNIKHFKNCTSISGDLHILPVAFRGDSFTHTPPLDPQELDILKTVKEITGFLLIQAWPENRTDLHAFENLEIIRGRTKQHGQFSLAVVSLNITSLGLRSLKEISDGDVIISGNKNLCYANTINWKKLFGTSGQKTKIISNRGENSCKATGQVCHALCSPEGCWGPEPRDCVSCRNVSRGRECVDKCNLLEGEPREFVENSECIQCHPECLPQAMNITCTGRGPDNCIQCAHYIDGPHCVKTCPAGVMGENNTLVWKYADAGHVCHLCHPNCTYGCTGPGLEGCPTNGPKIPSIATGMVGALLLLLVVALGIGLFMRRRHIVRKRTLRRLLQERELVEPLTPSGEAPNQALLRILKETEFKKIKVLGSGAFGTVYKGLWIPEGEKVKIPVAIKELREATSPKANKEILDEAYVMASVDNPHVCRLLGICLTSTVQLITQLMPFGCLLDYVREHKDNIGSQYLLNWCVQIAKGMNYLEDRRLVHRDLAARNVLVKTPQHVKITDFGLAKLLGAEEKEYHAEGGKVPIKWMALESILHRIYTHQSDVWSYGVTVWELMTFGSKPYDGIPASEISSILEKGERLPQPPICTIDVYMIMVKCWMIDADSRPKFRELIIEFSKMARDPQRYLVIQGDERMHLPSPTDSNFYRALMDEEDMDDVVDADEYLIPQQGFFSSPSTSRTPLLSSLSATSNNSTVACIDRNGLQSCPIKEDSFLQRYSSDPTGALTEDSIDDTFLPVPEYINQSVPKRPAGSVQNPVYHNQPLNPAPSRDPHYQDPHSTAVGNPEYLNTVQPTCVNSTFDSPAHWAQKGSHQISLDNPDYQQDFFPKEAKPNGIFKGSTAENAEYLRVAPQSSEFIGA
Chain of EGFR Del19/T790M/C797S (P00533 with tags, fused parts or gaps DEL746-750/T790M/C797S): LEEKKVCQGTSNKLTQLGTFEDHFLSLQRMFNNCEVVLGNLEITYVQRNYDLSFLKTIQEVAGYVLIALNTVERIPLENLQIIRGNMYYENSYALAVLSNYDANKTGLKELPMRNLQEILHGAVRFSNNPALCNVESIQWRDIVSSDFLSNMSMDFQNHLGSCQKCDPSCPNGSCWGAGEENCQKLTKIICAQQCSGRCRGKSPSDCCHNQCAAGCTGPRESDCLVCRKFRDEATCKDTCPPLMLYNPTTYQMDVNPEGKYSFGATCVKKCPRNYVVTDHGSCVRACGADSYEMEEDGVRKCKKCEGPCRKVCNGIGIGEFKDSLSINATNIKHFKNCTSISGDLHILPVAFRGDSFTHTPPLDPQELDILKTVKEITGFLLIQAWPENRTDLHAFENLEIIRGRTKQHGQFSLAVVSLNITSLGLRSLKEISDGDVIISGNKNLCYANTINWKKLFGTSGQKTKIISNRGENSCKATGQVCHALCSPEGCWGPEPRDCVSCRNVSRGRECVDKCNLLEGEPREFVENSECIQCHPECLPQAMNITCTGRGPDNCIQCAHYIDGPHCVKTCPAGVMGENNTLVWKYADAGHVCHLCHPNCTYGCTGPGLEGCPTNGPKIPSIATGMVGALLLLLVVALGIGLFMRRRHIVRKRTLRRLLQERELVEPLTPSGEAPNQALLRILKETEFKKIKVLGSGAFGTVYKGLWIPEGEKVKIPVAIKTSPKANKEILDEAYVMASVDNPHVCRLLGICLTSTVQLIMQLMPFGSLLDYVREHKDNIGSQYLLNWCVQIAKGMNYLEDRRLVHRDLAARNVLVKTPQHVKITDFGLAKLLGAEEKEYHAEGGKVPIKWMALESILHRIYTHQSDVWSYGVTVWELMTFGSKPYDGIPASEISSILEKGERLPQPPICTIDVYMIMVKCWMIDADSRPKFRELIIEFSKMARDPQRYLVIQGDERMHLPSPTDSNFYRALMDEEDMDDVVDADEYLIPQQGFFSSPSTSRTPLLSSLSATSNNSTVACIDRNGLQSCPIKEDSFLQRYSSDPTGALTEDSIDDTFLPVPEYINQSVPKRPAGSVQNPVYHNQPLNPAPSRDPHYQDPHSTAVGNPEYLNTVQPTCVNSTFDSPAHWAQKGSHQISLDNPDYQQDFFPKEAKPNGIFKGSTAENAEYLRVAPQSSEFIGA
Chain of EGFR L858R/T790M/C797S (P00533 25-1210 T790M/C797S/L858R): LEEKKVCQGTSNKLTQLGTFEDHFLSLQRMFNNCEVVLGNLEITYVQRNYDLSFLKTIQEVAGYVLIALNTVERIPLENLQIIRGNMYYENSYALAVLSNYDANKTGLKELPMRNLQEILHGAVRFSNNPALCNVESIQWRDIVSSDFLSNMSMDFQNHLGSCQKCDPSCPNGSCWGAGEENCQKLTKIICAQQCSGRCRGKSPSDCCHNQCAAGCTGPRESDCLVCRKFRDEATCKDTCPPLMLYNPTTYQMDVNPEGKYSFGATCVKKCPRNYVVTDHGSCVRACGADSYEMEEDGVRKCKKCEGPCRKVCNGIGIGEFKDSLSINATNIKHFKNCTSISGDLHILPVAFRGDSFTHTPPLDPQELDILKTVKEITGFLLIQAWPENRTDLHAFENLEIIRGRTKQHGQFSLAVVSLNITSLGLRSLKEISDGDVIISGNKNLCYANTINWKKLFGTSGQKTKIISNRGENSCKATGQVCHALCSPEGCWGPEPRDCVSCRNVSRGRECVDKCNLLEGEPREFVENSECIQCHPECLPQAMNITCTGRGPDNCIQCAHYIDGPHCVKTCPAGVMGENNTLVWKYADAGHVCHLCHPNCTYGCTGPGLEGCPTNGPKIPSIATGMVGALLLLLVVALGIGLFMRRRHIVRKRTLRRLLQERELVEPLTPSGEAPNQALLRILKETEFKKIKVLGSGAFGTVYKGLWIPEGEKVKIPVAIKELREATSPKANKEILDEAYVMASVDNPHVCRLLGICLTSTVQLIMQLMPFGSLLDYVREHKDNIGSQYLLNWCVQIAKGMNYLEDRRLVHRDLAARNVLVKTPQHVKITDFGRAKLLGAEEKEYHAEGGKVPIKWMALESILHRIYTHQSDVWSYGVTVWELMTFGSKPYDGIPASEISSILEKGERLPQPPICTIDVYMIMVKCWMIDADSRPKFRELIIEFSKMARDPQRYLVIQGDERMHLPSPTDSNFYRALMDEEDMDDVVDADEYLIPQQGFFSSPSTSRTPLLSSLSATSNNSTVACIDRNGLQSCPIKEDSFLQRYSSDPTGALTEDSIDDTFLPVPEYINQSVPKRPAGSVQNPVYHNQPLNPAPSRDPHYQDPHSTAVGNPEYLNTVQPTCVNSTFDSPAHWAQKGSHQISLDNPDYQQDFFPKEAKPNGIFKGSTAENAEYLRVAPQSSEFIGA

Compound | IC50 (EGFR Del19/T790M/C797S; [1]) | IC50 (EGFR L858R/T790M/C797S; [2]) | IC50 (EGFR Del19/C797S; [3]) | IC50 (EGFR wildtype (WT); [4]) | IC50 (EGFR Del19/T790M/C797S; [5]) | IC50 (EGFR L858R/T790M/C797S; [6]) | IC50 (EGFR Del19/C797S; [7]) | IC50 (EGFR wildtype (WT); IC50 WT (nM), 100 μM ATP) | IC50 (EGFR Del19/T790M/C797S; [8]) | IC50 (EGFR wildtype (WT); [9]) | IC50 (EGFR Del19/C797S; [10])
CCC(C)Oc1cc(Nc2ccnc(-c3cnn(S(=O)(=O)C4CC4)c3)n2)ncc1C#Cc1cnn(C(C)C)c1 (stereo not drawn) [Example 57, N-(4-(sec-Butoxy)-5-((1-isopropyl-1H-pyrazol-4-yl)ethynyl)pyridin-2-yl)-2-(1-(cyclopropylsulfonyl)-1H-pyrazol-4-yl)pyrimidin-4-amine] | 13.9 nM | 26.1 nM | 493 nM |  |  |  |  |  |  |  | 
CC(C)Oc1cc(Nc2ccnc(-c3cnn(S(=O)(=O)C4CC4)c3)n2)ncc1C#Cc1cnn(CCF)c1 [Example 55, 2-(1-(Cyclopropylsulfonyl)-1H-pyrazol-4-yl)-N-(5-((1-(2-fluoroethyl)-1H-pyrazol-4-yl)ethynyl)-4-isopropoxypyridin-2-yl)pyrimidin-4-amine] | 7 nM | 19.1 nM | 398 nM | 2630 nM |  |  |  |  |  |  | 
CC(C)Nc1cc(Nc2ccnc(-c3cnn(S(=O)(=O)C4CC4)c3)n2)ncc1C#CC(C)(C)O [Example 204, 4-(6-((2-(1-(Cyclopropylsulfonyl)-1H-pyrazol-4-yl)pyrimidin-4-yl)amino)-4-(isopropylamino)pyridin-3-yl)-2-methylbut-3-yn-2-ol] |  |  |  |  |  |  | 187 nM | > 10000 nM | 22.7 nM | 264 nM | 
CC(C)Nc1cc(Nc2ccnc(-c3cnn(S(=O)(=O)C4CC4)c3)n2)ncc1C#Cc1csc(C2CC2)n1 [Example 205, N^2-(2-(1-(Cyclopropylsulfonyl)-1H-pyrazol-4-yl)pyrimidin-4-yl)-5-((2-cyclopropylthiazol-4-yl)ethynyl)-N^4-isopropylpyridine-2,4-diamine] |  |  |  |  |  |  |  |  | 18.3 nM | 587 nM | 265 nM
Cn1cc(-c2cc(Nc3ccnc(-c4cnn(S(=O)(=O)C5CC5)c4)n3)ncc2C#Cc2cnn(CCF)c2)cn1 [Example 234, 2-(1-(Cyclopropylsulfonyl)-1H-pyrazol-4-yl)-N-(5-((1-(2-fluoroethyl)-1H-pyrazol-4-yl)ethynyl)-4-(1-methyl-1H-pyrazol-4-yl)pyridin-2-yl)pyrimidin-4-amine] | 4.1 nM | 16.1 nM | 214 nM | 1010 nM |  |  |  |  |  |  | 
CC(C)Nc1cc(Nc2ccnc(-c3cnn(S(=O)(=O)C4CC4)c3)n2)ncc1C#CC1CCOCC1 [Example 206, N^2-(2-(1-(Cyclopropylsulfonyl)-1H-pyrazol-4-yl)pyrimidin-4-yl)-N^4-isopropyl-5-((tetrahydro-2H-pyran-4-yl)ethynyl)pyridine-2,4-diamine] |  |  |  |  |  |  |  |  | 3.5 nM | 201 nM | 69.1 nM
Cn1cc(C#Cc2cnc(Nc3ccnc(-c4cnn(S(=O)(=O)C5CC5)c4)n3)cc2-c2cnn(C3CC3)c2)cn1 [Example 235, N-(4-(1-Cyclopropyl-1H-pyrazol-4-yl)-5-((1-methyl-1H-pyrazol-4-yl)ethynyl)pyridin-2-yl)-2-(1-(cyclopropylsulfonyl)-1H-pyrazol-4-yl)pyrimidin-4-amine] | 4.7 nM | 13.2 nM | 311 nM | 2220 nM |  |  |  |  |  |  | 
O=S(=O)(C1CC1)n1cc(-c2nccc(Nc3cc(N4CCN(CCO)CC4)c(C#Cc4cnn(CCF)c4)cn3)n2)cn1 [Example 16, 2-(4-(2-((2-(1-(Cyclopropylsulfonyl)-1H-pyrazol-4-yl)pyrimidin-4-yl)amino)-5-((1-(2-fluoroethyl)-1H-pyrazol-4-yl)ethynyl)pyridin-4-yl)piperazin-1-yl)ethan-1-ol] | 4.5 nM |  | 68.6 nM | 145 nM | 3.3 nM | 10.1 nM | 165 nM | > 10000 nM |  |  | 
CN(CCO)c1cc(Nc2ccnc(-c3cnn(S(=O)(=O)C4CC4)c3)n2)ncc1C#Cc1cnn(CCF)c1 [Example 38, 2-((2-((2-(1-(Cyclopropylsulfonyl)-1H-pyrazol-4-yl)pyrimidin-4-yl)amino)-5-((1-(2-fluoroethyl)-1H-pyrazol-4-yl)ethynyl)pyridin-4-yl)(methyl)amino)ethan-1-ol] | 17.6 nM |  |  | 368 nM |  |  | 464 nM | > 10000 nM |  |  | 
CN(CCO)c1cc(Nc2ccnc(-c3cnn(S(=O)(=O)C4CC4)c3)n2)ncc1C#Cc1cnn(C)c1 [Example 37, 2-((2-((2-(1-(Cyclopropylsulfonyl)-1H-pyrazol-4-yl)pyrimidin-4-yl)amino)-5-((1-methyl-1H-pyrazol-4-yl)ethynyl)pyridin-4-yl)(methyl)amino)ethan-1-ol] | 20.2 nM |  |  | 435 nM |  |  | 870 nM | > 10000 nM |  |  | 
CCC(C)Oc1cc(Nc2ccnc(-c3cnn(S(=O)(=O)C4CC4)c3)n2)ncc1C#Cc1cnn(C)c1 (stereo not drawn) [Example 56, N-(4-(sec-Butoxy)-5-((1-methyl-1H-pyrazol-4-yl)ethynyl)pyridin-2-yl)-2-(1-(cyclopropylsulfonyl)-1H-pyrazol-4-yl)pyrimidin-4-amine] | 7.6 nM | 24.2 nM | 291 nM | > 10000 nM |  |  |  |  |  |  | 

Further lines, results first:

IC50 (EGFR Del19/T790M/C797S; [1]) | IC50 (EGFR L858R/T790M/C797S; [2]) | IC50 (EGFR Del19/C797S; [3]) | IC50 (EGFR wildtype (WT); [4]) | IC50 (EGFR Del19/T790M/C797S; [5]) | IC50 (EGFR L858R/T790M/C797S; [6]) | IC50 (EGFR Del19/C797S; [7]) | IC50 (EGFR wildtype (WT); IC50 WT (nM), 100 μM ATP) | IC50 (EGFR Del19/T790M/C797S; [8]) | IC50 (EGFR wildtype (WT); [9]) | IC50 (EGFR Del19/C797S; [10]) | Compound
6.9 nM | 6.5 nM | 105 nM | 915 nM |  |  |  |  |  |  |  | CCC(C)Nc1cc(Nc2ccnc(-c3cnn(S(=O)(=O)C4CC4)c3)n2)ncc1C#Cc1cnn(C(C)C)c1 (stereo not drawn) [Example 25, N^4-(sec-Butyl)-N^2-(2-(1-(cyclopropylsulfonyl)-1H-pyrazol-4-yl)pyrimidin-4-yl)-5-((1-isopropyl-1H-pyrazol-4-yl)ethynyl)pyridine-2,4-diamine]
2.7 nM | 4.4 nM | 32.9 nM | 462 nM |  |  |  |  |  |  |  | CCC(C)Nc1cc(Nc2ccnc(-c3cnn(S(=O)(=O)C4CC4)c3)n2)ncc1C#Cc1cnn(C)c1 (stereo not drawn) [Example 24, N^4-(sec-Butyl)-N^2-(2-(1-(cyclopropylsulfonyl)-1H-pyrazol-4-yl)pyrimidin-4-yl)-5-((1-methyl-1H-pyrazol-4-yl)ethynyl)pyridine-2,4-diamine]
2.2 nM | 3.3 nM | 35.5 nM | 213 nM | 1.6 nM | 1.1 nM | 47.3 nM | > 10000 nM |  |  |  | CC(C)Nc1cc(Nc2ccnc(-c3cnn(S(=O)(=O)C4CC4)c3)n2)ncc1C#Cc1cnn(C)c1 [Example 18, N^2-(2-(1-(Cyclopropylsulfonyl)-1H-pyrazol-4-yl)pyrimidin-4-yl)-N^4-isopropyl-5-((1-methyl-1H-pyrazol-4-yl)ethynyl)pyridine-2,4-diamine]
4.5 nM | 15.5 nM | 299 nM | 1340 nM |  |  |  |  |  |  |  | Cn1cc(C#Cc2cnc(Nc3ccnc(-c4cnn(S(=O)(=O)C5CC5)c4)n3)cc2-c2cnn(C)c2)cn1 [Example 233, 2-(1-(Cyclopropylsulfonyl)-1H-pyrazol-4-yl)-N-(4-(1-methyl-1H-pyrazol-4-yl)-5-((1-methyl-1H-pyrazol-4-yl)ethynyl)pyridin-2-yl)pyrimidin-4-amine]
5.5 nM | 16.5 nM | 232 nM | 2720 nM |  |  |  |  |  |  |  | O=S(=O)(C1CC1)n1cc(-c2nccc(Nc3cc(-c4cnn(C5CC5)c4)c(C#Cc4cnn(CCF)c4)cn3)n2)cn1 [Example 237, N-(4-(1-Cyclopropyl-1H-pyrazol-4-yl)-5-((1-(2-fluoroethyl)-1H-pyrazol-4-yl)ethynyl)pyridin-2-yl)-2-(1-(cyclopropylsulfonyl)-1H-pyrazol-4-yl)pyrimidin-4-amine]
0.8 nM | 1.8 nM | 34.3 nM | 374 nM |  |  |  |  |  |  |  | CC(C)Nc1cc(Nc2ccnc(-c3cnn(S(=O)(=O)C4CC4)c3)n2)ncc1C#Cc1cccnc1 [Example 21, N^2-(2-(1-(Cyclopropylsulfonyl)-1H-pyrazol-4-yl)pyrimidin-4-yl)-N^4-isopropyl-5-(pyridin-3-ylethynyl)pyridine-2,4-diamine]
11.3 nM | 45.3 nM | 359 nM |  |  |  |  |  |  |  |  | CC(C)n1cc(C#Cc2cnc(Nc3ccnc(-c4cnn(S(=O)(=O)C5CC5)c4)n3)cc2-c2cnn(C3CC3)c2)cn1 [Example 236, N-(4-(1-cyclopropyl-1H-pyrazol-4-yl)-5-((1-isopropyl-1H-pyrazol-4-yl)ethynyl)pyridin-2-yl)-2-(1-(cyclopropylsulfonyl)-1H-pyrazol-4-yl)pyrimidin-4-amine]
6.6 nM |  | 240 nM | 3830 nM |  |  |  |  |  |  |  | CCS(=O)(=O)N1CCN(c2cc(Nc3ccnc(-c4cnn(S(=O)(=O)C5CC5)c4)n3)ncc2C#Cc2cnn(C)c2)CC1 [Example 3, 2-(1-(Cyclopropylsulfonyl)-1H-pyrazol-4-yl)-N-(4-(4-(ethylsulfonyl)piperazin-1-yl)-5-((1-methyl-1H-pyrazol-4-yl)ethynyl)pyridin-2-yl)pyrimidin-4-amine]
